Like-named read-outs stand apart in the source and are kept apart here.
Columns and labels:
Format in all cases: cell-based
[1] = system: A549 (lung adenocarcinoma); experiment: Cell viability analysis (WST-1), lung cancer cell line A549; settings: Homo sapiens
[2] = system: 786-O (Renal adenocarcinoma); experiment: Cell viability analysis (WST-1), renal cancer cell line 786-O; settings: Homo sapiens
Experimental: (§1) The cell numbers were counted and reseed as 2×10^6 in cell culture plate/flask. Then, the culture medium was added to a volume of 10 ml, and the cells were cultured for 2-3 days. Then, the cells were suspended for loading into 96-well plates. The cell number was 3000/well and the volume of the culture medium was 100 μl each well.
(§2) Removing the original culture medium from 96-well plate. Then add 100 μl of commercially drug at a concentration of 10 μM per well. After 72 hours, add the diluted WST-1 reagent to the well with 100 μl/well, and the diluted WST-1 reagent was acquired from the dilution of 9:1 medium and WST-1 stock reagent. Finally, the total volume of each well was 200 μl/well. Culture the 96-well plate at 37° C. for 30 to 90 minutes. Detecting and calculate the survival rate of each cancer cells with an ELISA reader at OD450 nm.

[3] = system: PC-3 (Prostate adenocarcinoma); experiment: Cell viability analysis (WST-1), prostate cancer cell line PC-3; settings: PC-3, 10 μM
Experimental: as §1, §2

[4] = system: LNCap (prostate cancer cell line); experiment: Cell viability analysis (WST-1), prostate cancer cell line LNCap; settings: Homo sapiens
Experimental: as §1, §2

[5] = system: MDA-MB-231 (Mammary Gland, Adenocarcinoma); experiment: Cell viability analysis (WST-1), breast cancer cell line MDA-MB-231; settings: Homo sapiens
Experimental: as §1, §2

[6] = system: TOV-21G (ovarian cancer cell line); experiment: Cell viability analysis (WST-1), ovarian cancer cell line TOV-21G; settings: Homo sapiens, TOV21G
Experimental: as §1, §2

[7] = system: AGS (Gastric Adenocarcinoma); experiment: Cell viability analysis (WST-1), gastric cancer cell line AGS
Experimental: as §1, §2

[8] = system: MKN-45 (Gastric Adenocarcinoma); experiment: Cell viability analysis (WST-1), gastric cancer cell line MKN-45; settings: Homo sapiens
[9] = system: Hep3B (hepatocellular carcinoma); experiment: Cell viability analysis (WST-1), hepatic cancer cell line Hep3B; settings: Homo sapiens
[10] = system: LoVo (Colorectal Adenocarcinoma); experiment: Cell viability analysis (WST-1), colorectal cancer cell line LoVo; settings: Homo sapiens
Experimental: as §1, §2

[11] = system: AsPC-1 (pancreatic cancer cell line); experiment: Cell viability analysis (WST-1), pancreatic cancer cell line AsPC-1; settings: Homo sapiens
Experimental: as §1, §2

[12] = system: BxPC-3 (pancreatic cancer cell line); experiment: Cell viability analysis (WST-1), pancreatic cancer cell line BxPC-3; settings: Homo sapiens
Experimental: as §1, §2

[13] = system: SAS (Tongue squamous cell carcinoma); experiment: Cell viability analysis (WST-1), tongue cancer cell line SAS
Experimental: as §1, §2

[14] = Cell viability analysis (WST-1), normal kidney cell line HEK293; settings: human, HEK293 normal kidney cells
Experimental: as §1, §2

bladder cancer cell = experiment: Summary of the effect on bladder cancer cell (TSGH, T24); settings: bladder cancer cell (mean of TSGH and T24 averages), 72 hours, read-out: Inhibitory effect
Experimental: as §2

breast cancer cell = experiment: Summary of the effect on breast cancer cell (MCF7, MDA-MB-231); settings: breast cancer cell (mean of MCF7 and MDA-MB-231 averages), 72 hours, read-out: Inhibitory effect
Experimental: as §2

various cancer cells = experiment: Inhibition test on all kinds of cancer cells (overall statement); settings: FIG. 1
Experimental: as §2

normal cells = experiment: Toxicity to normal cells (overall statement)
[15] = 72 h, average of 4 tests, read-out: inhibition effect (survival rate of cells), average

## Oc1ccc(OCc2ccccc2)cc1 [Monobenzone]
[1]; A549, 72 h, A549, 10 μM, average of 4 tests, read-out: inhibition effect (survival rate of cells), Average
  viability at 10 µM: 93.4%
[1]; A549, A549, 10 μM, 72 hours, test 0524-10 min, read-out: inhibition effect (survival rate of cells)
  viability at 10 µM: 80.8%
[1]; A549, A549, 10 μM, 72 hours, test 0526-10 min, read-out: inhibition effect (survival rate of cells)
  viability at 10 µM: 111%
[1]; A549, A549, 10 μM, 72 hours, test 0529-10 min, read-out: inhibition effect (survival rate of cells)
  viability at 10 µM: 80.8%
[2]; 786-0, 786-O, 72 hours, test 0524-10 min, read-out: inhibition effect (survival rate of cells)
  viability at 10 µM: 39.8%
[2]; 786-0, 786-O, 72 hours, test 0526-10 min, read-out: inhibition effect (survival rate of cells)
  viability at 10 µM: 32.4%
[2]; 786-0, 786-O, 72 hours, test 0529-10 min, read-out: inhibition effect (survival rate of cells)
  viability at 10 µM: 21.2%
[2]; 786-0, 786-O, 72 hours, test 0531-10 min, read-out: inhibition effect (survival rate of cells)
  viability at 10 µM: 23.4%
[2]; 786-0, 72 h, 786-O, average of 4 tests, read-out: inhibition effect (survival rate of cells), average
  viability at 10 µM: 29.2%
[2]; 786-0, 72 h, Kidney cancer cell (786-O average), read-out: Inhibitory effect
  viability at 10 µM: 29.2%
[3]; [15]
  viability at 10 µM: 62.5%
[3]; 72 hours, test PC-3-0524-10 min, read-out: inhibition effect (survival rate of cells)
  viability at 10 µM: 57%
[3]; 72 hours, test PC-3-0526-10 min, read-out: inhibition effect (survival rate of cells)
  viability at 10 µM: 70.6%
[3]; 72 hours, test PC-3-0529-10 min, read-out: inhibition effect (survival rate of cells)
  viability at 10 µM: 63.2%
[3]; 72 hours, test PC-3-0531-10 min, read-out: inhibition effect (survival rate of cells)
  viability at 10 µM: 59%
[4]; [15]
  viability at 10 µM: 67.9%
[4]; 72 hours, test LNCap-1-10 min, read-out: inhibition effect (survival rate of cells)
  viability at 10 µM: 65.5%
[4]; 72 hours, test LNCap-2-20 min, read-out: inhibition effect (survival rate of cells)
  viability at 10 µM: 52.7%
[4]; 72 hours, test LNCap-3-20 min, read-out: inhibition effect (survival rate of cells)
  viability at 10 µM: 81.6%
[4]; 72 hours, test LNCap-4-20 min, read-out: inhibition effect (survival rate of cells)
  viability at 10 µM: 71.6%
[5]; MDA-MB-231, 72 h, MDA-MB-231, 10 μM, average of 4 tests, read-out: inhibition effect (survival rate of cells), average
  viability at 10 µM: 80.1%
[5]; MDA-MB-231, MDA-MB-231, 10 μM, 72 hours, test 0612-10 min, read-out: inhibition effect (survival rate of cells)
  viability at 10 µM: 91.3%
[5]; MDA-MB-231, MDA-MB-231, 10 μM, 72 hours, test 0614-10 min, read-out: inhibition effect (survival rate of cells)
  viability at 10 µM: 67.6%
[5]; MDA-MB-231, MDA-MB-231, 10 μM, 72 hours, test 0616-10 min, read-out: inhibition effect (survival rate of cells)
  viability at 10 µM: 69.6%
[5]; MDA-MB-231, MDA-MB-231, 10 μM, 72 hours, test 0619-10 min, read-out: inhibition effect (survival rate of cells)
  viability at 10 µM: 92%
[6]; [15]
  viability at 10 µM: 78.4%
[6]; 72 hours, test 7-3-30 min, read-out: inhibition effect (survival rate of cells)
  viability at 10 µM: 93.9%
[6]; 72 hours, test 7-4-30 min, read-out: inhibition effect (survival rate of cells)
  viability at 10 µM: 78.4%
[6]; 72 hours, test 7-7-30 min, read-out: inhibition effect (survival rate of cells)
  viability at 10 µM: 69.6%
[6]; 72 hours, test −4-30 min, read-out: inhibition effect (survival rate of cells)
  viability at 10 µM: 71.6%
[7]; [15]
  viability at 10 µM: 68.4%
[7]; 72 hours, test 0510-10 min, read-out: inhibition effect (survival rate of cells)
  viability at 10 µM: 85.2%
[7]; 72 hours, test 0512-10 min, read-out: inhibition effect (survival rate of cells)
  viability at 10 µM: 51.3%
[7]; 72 hours, test 0515-10 min, read-out: inhibition effect (survival rate of cells)
  viability at 10 µM: 62.2%
[7]; 72 hours, test 0517-10 min, read-out: inhibition effect (survival rate of cells)
  viability at 10 µM: 74.9%
[8]; MKN-45, 72 h, MKN-45, 10 μM, average of 4 tests, read-out: inhibition effect (survival rate of cells), average
  viability at 10 µM: 97.2%
[8]; MKN-45, MKN-45, 10 μM, 72 hours, test 0510-10 min, read-out: inhibition effect (survival rate of cells)
  viability at 10 µM: 89.2%
[8]; MKN-45, MKN-45, 10 μM, 72 hours, test 0512-10 min, read-out: inhibition effect (survival rate of cells)
  viability at 10 µM: 107%
[8]; MKN-45, MKN-45, 10 μM, 72 hours, test 0517-10 min, read-out: inhibition effect (survival rate of cells)
  viability at 10 µM: 91.3%
[9]; [15]
  viability at 10 µM: 106%
[9]; 72 hours, test 0612-20 min, read-out: inhibition effect (survival rate of cells)
  viability at 10 µM: 111%
[9]; 72 hours, test 0614-20 min, read-out: inhibition effect (survival rate of cells)
  viability at 10 µM: 116%
[9]; 72 hours, test 0616-20 min, read-out: inhibition effect (survival rate of cells)
  viability at 10 µM: 96.8%
[10]; [15]
  viability at 10 µM: 83%
[10]; 72 hours, test 0616-10 min, read-out: inhibition effect (survival rate of cells)
  viability at 10 µM: 82.3%
[10]; 72 hours, test 0619-10 min, read-out: inhibition effect (survival rate of cells)
  viability at 10 µM: 73.9%
[10]; 72 hours, test 0621-10 min, read-out: inhibition effect (survival rate of cells)
  viability at 10 µM: 94.7%
[10]; 72 hours, test 0623-10 min, read-out: inhibition effect (survival rate of cells)
  viability at 10 µM: 81.3%
[11]; ASPC1, 72 h, AsPC-1, 10 μM, average of 4 tests, read-out: inhibition effect (survival rate of cells), average
  viability at 10 µM: 95.1%
[11]; ASPC1, AsPC-1, 10 μM, 72 hours, test 1-4-30 min, read-out: inhibition effect (survival rate of cells)
  viability at 10 µM: 93.7%
[11]; ASPC1, AsPC-1, 10 μM, 72 hours, test 1-7-3-30 min, read-out: inhibition effect (survival rate of cells)
  viability at 10 µM: 88.7%
[11]; ASPC1, AsPC-1, 10 μM, 72 hours, test 1-7-4-30 min, read-out: inhibition effect (survival rate of cells)
  viability at 10 µM: 116%
[11]; ASPC1, AsPC-1, 10 μM, 72 hours, test 1-7-7-30 min, read-out: inhibition effect (survival rate of cells)
  viability at 10 µM: 81.7%
[12]; BXPC-3, 72 h, BxPC-3, 10 μM, average of 4 tests, read-out: inhibition effect (survival rate of cells), average
  viability at 10 µM: 78.6%
[12]; BXPC-3, BxPC-3, 10 μM, 72 hours, test 3-4-30 min, read-out: inhibition effect (survival rate of cells)
  viability at 10 µM: 86.3%
[12]; BXPC-3, BxPC-3, 10 μM, 72 hours, test 3-7-3-30 min, read-out: inhibition effect (survival rate of cells)
  viability at 10 µM: 57.4%
[12]; BXPC-3, BxPC-3, 10 μM, 72 hours, test 3-7-4-30 min, read-out: inhibition effect (survival rate of cells)
  viability at 10 µM: 100%
[12]; BXPC-3, BxPC-3, 10 μM, 72 hours, test 3-7-7-30 min, read-out: inhibition effect (survival rate of cells)
  viability at 10 µM: 70.7%
[13]; 72 h, SAS, average of 4 tests, read-out: inhibition effect (survival rate of cells), average
  viability at 10 µM: 90.3%
[13]; 72 h, tongue cancer cell (SAS average), read-out: Inhibitory effect
  viability at 10 µM: 90.3%
[13]; SAS, 72 hours, test 6-26-10 min, read-out: inhibition effect (survival rate of cells)
  viability at 10 µM: 97.3%
[13]; SAS, 72 hours, test 6-28-10 min, read-out: inhibition effect (survival rate of cells)
  viability at 10 µM: 59.4%
[13]; SAS, 72 hours, test 6-30-10 min, read-out: inhibition effect (survival rate of cells)
  viability at 10 µM: 89.6%
[13]; SAS, 72 hours, test 7-3-10 min, read-out: inhibition effect (survival rate of cells)
  viability at 10 µM: 115%
[14]; average of 4 tests, read-out: inhibition effect (survival rate of cells), average
  viability at 72 h, 10 µM: 93%
[14]; test 0602-30 min, read-out: inhibition effect (survival rate of cells)
  viability at 72 h, 10 µM: 82.7%
[14]; test 0605-30 min, read-out: inhibition effect (survival rate of cells)
  viability at 72 h, 10 µM: 99.4%
[14]; test 0607-30 min, read-out: inhibition effect (survival rate of cells)
  viability at 72 h, 10 µM: 97.9%
[14]; test 0609-30 min, read-out: inhibition effect (survival rate of cells)
  viability at 72 h, 10 µM: 91.8%
Bladder cancer cell
  viability at 10 µM: 85.8%
Breast cancer cell
  viability at 10 µM: 87.9%
Various cancer cells
  inhibitory effect and specificity on various cancer cells (in words): significant inhibitory effect and specificity on various cancer cells
Normal cells
  toxicity to normal cells (in words): no toxicity or had little toxicity to normal cells
